Source: patent publication US20210353631A1, “1,4-Benzoxazines for the Treatment of Cancers and Other Neurodegenerative Diseases” (Neugeneron LLC, priority 2020, published 2021)
Where two headings read alike, the source gives them in different places. Values belong to the molecule of their own block, whether it stands above or below them.

Key:
[1] = tested on: 451 kinases; assay: Kinome profiling, count of kinases inhibited in the whole panel; assay type: binding; settings: substantially defined as over 36% inhibition at 1 uM
[2] = tested on: panel of 20 kinases; settings: 500 nM; previous analyses; cited from earlier work
[3] = target: T1, GSK3β (Homo sapiens, UniProt P49841); settings: kinome profiling studies; cited from earlier work
[4] = target: p38 MAPK; settings: kinome profiling studies; cited from earlier work
[5] = target: cyclin-dependent kinases (CDKs); settings: kinome profiling studies; cited from earlier work
[6] = tested on: mouse model of HD; settings: cited from earlier work
[7] = tested on: fly model of AD; settings: widely-used fly model of AD; cited from earlier work
[8] = tested on: cell culture models of neurodegeneration; settings: cited from earlier work
[9] = target: T2, CIT (Homo sapiens, UniProt O14578); assay: KINOMEscan kinome profiling (DiscoveRx/Eurofin platform); assay type: binding; settings: read-out: % control
T2 construct: purchased DiscoveRx/Eurofin

[10] = target: T3, CLK1 (Homo sapiens, UniProt P49759); assay: as above; assay type: binding; settings: read-out: % control
T3 construct: purchased DiscoveRx/Eurofin

[11] = target: T4, CLK2 (Homo sapiens, UniProt P49760); assay: as above; assay type: binding; settings: read-out: % control
T4 construct: purchased DiscoveRx/Eurofin

[12] = target: T5, CLK3 (Homo sapiens, UniProt P49761); assay: as above; assay type: binding; settings: read-out: % control
T5 construct: purchased DiscoveRx/Eurofin

[13] = target: T6, CLK4 (Homo sapiens, UniProt Q9HAZ1); assay: as above; assay type: binding; settings: read-out: % control
T6 construct: purchased DiscoveRx/Eurofin

[14] = target: T7, CSF1R (Homo sapiens, UniProt P07333); assay: as above; assay type: binding; settings: read-out: % control
T7 construct: purchased DiscoveRx/Eurofin

[15] = target: T8, CSF1R -autoinhibited (Homo sapiens, UniProt P07333); assay: as above; assay type: binding; settings: read-out: % control
T8 construct: purchased DiscoveRx/Eurofin

[16] = target: T9, CSK (Homo sapiens, UniProt P41240); assay: as above; assay type: binding; settings: read-out: % control
T9 construct: purchased DiscoveRx/Eurofin

[17] = target: T10, CSNK1A1 (Homo sapiens, UniProt P48729); assay: as above; assay type: binding; settings: read-out: % control
T10 construct: purchased DiscoveRx/Eurofin

[18] = target: T11, CSNK1A1L (Homo sapiens, UniProt Q8N752); assay: as above; assay type: binding; settings: read-out: % control
T11 construct: purchased DiscoveRx/Eurofin

[19] = target: T12, CSNK1D (Homo sapiens, UniProt P48730); assay: as above; assay type: binding; settings: read-out: % control
T12 construct: purchased DiscoveRx/Eurofin

[20] = target: T13, CSNK1E (Homo sapiens, UniProt P49674); assay: as above; assay type: binding; settings: read-out: % control
T13 construct: purchased DiscoveRx/Eurofin

[21] = target: T14, CSNK1G1 (Homo sapiens, UniProt Q9HCP0); assay: as above; assay type: binding; settings: read-out: % control
T14 construct: purchased DiscoveRx/Eurofin

[22] = target: T15, CSNK1G2 (Homo sapiens, UniProt P78368); assay: as above; assay type: binding; settings: read-out: % control
T15 construct: purchased DiscoveRx/Eurofin

[23] = target: T16, CSNK1G3 (Homo sapiens, UniProt Q9Y6M4); assay: as above; assay type: binding; settings: read-out: % control
T16 construct: purchased DiscoveRx/Eurofin

[24] = target: T17, CSNK2A1 (Homo sapiens, UniProt P68400); assay: as above; assay type: binding; settings: read-out: % control
T17 construct: purchased DiscoveRx/Eurofin

[25] = target: T18, CSNK2A2 (Homo sapiens, UniProt P19784); assay: as above; assay type: binding; settings: read-out: % control
T18 construct: purchased DiscoveRx/Eurofin

[26] = target: T19, CTK (MATK) (Homo sapiens, UniProt P42679); assay: as above; assay type: binding; settings: KINOMEscan CTK (Entrez MATK), read-out: % control
T19 construct: purchased DiscoveRx/Eurofin

[27] = target: T20, DAPK1 (Homo sapiens, UniProt P53355); assay: as above; assay type: binding; settings: read-out: % control
T20 construct: purchased DiscoveRx/Eurofin

[28] = target: T21, DAPK2 (Homo sapiens, UniProt Q9UIK4); assay: as above; assay type: binding; settings: read-out: % control
T21 construct: purchased DiscoveRx/Eurofin

[29] = target: T22, DAPK3 (Homo sapiens, UniProt O43293); assay: as above; assay type: binding; settings: read-out: % control
T22 construct: purchased DiscoveRx/Eurofin

[30] = target: T23, DCAMKL1 (DCLK1) (Homo sapiens, UniProt O15075); assay: as above; assay type: binding; settings: KINOMEscan DCAMKL1 (Entrez DCLK1), read-out: % control
T23 construct: purchased DiscoveRx/Eurofin

[31] = target: T24, DCAMKL2 (DCLK2) (Homo sapiens, UniProt Q8N568); assay: as above; assay type: binding; settings: KINOMEscan DCAMKL2 (Entrez DCLK2), read-out: % control
T24 construct: purchased DiscoveRx/Eurofin

[32] = target: T25, DCAMKL3 (DCLK3) (Homo sapiens, UniProt Q9C098); assay: as above; assay type: binding; settings: KINOMEscan DCAMKL3 (Entrez DCLK3), read-out: % control
T25 construct: purchased DiscoveRx/Eurofin

[33] = target: T26, DDR1 (Homo sapiens, UniProt Q08345); assay: as above; assay type: binding; settings: read-out: % control
T26 construct: purchased DiscoveRx/Eurofin

[34] = target: T27, DDR2 (Homo sapiens, UniProt Q16832); assay: as above; assay type: binding; settings: read-out: % control
T27 construct: purchased DiscoveRx/Eurofin

[35] = target: T28, DLK (MAP3K12) (Homo sapiens, UniProt Q12852); assay: as above; assay type: binding; settings: KINOMEscan DLK (Entrez MAP3K12), read-out: % control
T28 construct: purchased DiscoveRx/Eurofin

[36] = target: T29, DMPK (Homo sapiens, UniProt Q09013); assay: as above; assay type: binding; settings: read-out: % control
T29 construct: purchased DiscoveRx/Eurofin

[37] = target: T30, DMPK2 (CDC42BPG) (Homo sapiens, UniProt Q6DT37); assay: as above; assay type: binding; settings: KINOMEscan DMPK2 (Entrez CDC42BPG), read-out: % control
T30 construct: purchased DiscoveRx/Eurofin

[38] = target: T31, DRAK1/STK17a (Homo sapiens, UniProt Q9UEE5); assay: as above; assay type: binding; settings: KINOMEscan DRAK1 (Entrez STK17A), read-out: % control
T31 construct: purchased DiscoveRx/Eurofin

[39] = target: T32, DRAK2 (STK17B) (Homo sapiens, UniProt O94768); assay: as above; assay type: binding
T32 construct: purchased DiscoveRx/Eurofin

[40] = target: T33, DYRK1A (Homo sapiens, UniProt Q13627); assay: as above; assay type: binding; settings: read-out: % control
T33 construct: purchased DiscoveRx/Eurofin

[41] = target: T34, DYRK1B (Homo sapiens, UniProt Q9Y463); assay: as above; assay type: binding; settings: read-out: % control
T34 construct: purchased DiscoveRx/Eurofin

[42] = target: T35, DYRK2 (Homo sapiens, UniProt Q92630); assay: as above; assay type: binding; settings: read-out: % control
T35 construct: purchased DiscoveRx/Eurofin

[43] = target: T36, EGFR (Homo sapiens, UniProt P00533); assay: as above; assay type: binding; settings: read-out: % control
T36 construct: purchased DiscoveRx/Eurofin

[44] = target: T37, EGFR(E746-A750del) (Homo sapiens, UniProt P00533, DEL746-750); assay: as above; assay type: binding; settings: read-out: % control
T37 construct: purchased DiscoveRx/Eurofin

[45] = target: T38, EGFR(G719C) (Homo sapiens, UniProt P00533, G719C); assay: as above; assay type: binding; settings: read-out: % control
T38 construct: purchased DiscoveRx/Eurofin

[46] = target: T39, EGFR(G719S) (Homo sapiens, UniProt P00533, G719S); assay: as above; assay type: binding; settings: read-out: % control
T39 construct: purchased DiscoveRx/Eurofin

[47] = target: T40, EGFR(L747-E749del, A750P) (Homo sapiens, UniProt P00533, A750P/DEL747-749); assay: as above; assay type: binding; settings: read-out: % control
T40 construct: purchased DiscoveRx/Eurofin

[48] = target: T41, EGFR(L747-S752del, P753S) (Homo sapiens, UniProt P00533, DEL747-752/P753S); assay: as above; assay type: binding; settings: read-out: % control
T41 construct: purchased DiscoveRx/Eurofin

[49] = tested on: EGFR(L747-T751del,Sins); assay: as above; assay type: binding; settings: 1 uM
[50] = tested on: cerebellar granule neurons (CGNs); assay: Neuroprotection in cerebellar granule neurons switched from HK to LK medium; assay type: cell-based; settings: 1, 5 and 25 uM, viability 24 h later, single experiment in duplicate
Description: (§1) FIGS. 1A to 1C, show: (FIG. 1A) Chemical structure of NGN-006. (FIG. 1B) Neuroprotection in cerebellar granule neurons (CGNs) induced to die by switching from high potassium (HK) to low potassium (LK) medium. HSB-13 and NGN-006 were added to LK-treated CGNs at 1, 5 and 25 uM concentrations. Viability was measured 24 h later and compared with control survival in HK). Results are means values from a single experiment performed in duplicate. […] (FIG. 1C) Neuroprotection in cortical neurons (CGNs) induced to die by treatment with homocysteic acid (HCA) which induces oxidative stress. Neurons were treated either with HCA alone or HCA with 25 uM HSB-13 or 5 uM and 25 uM NGN-006 for 18 h. Viability was measured 24 h later and compared with survival of control (untreated cells, Unt). Results are mean values from a single experiment performed in duplicate.
(§2) Based on the structure of HSB-13 addition compounds have been synthesized. Among these derivatives was NGN-006 (FIG. 1A). […] Viability was measured 24 h later and compared with control survival in HK). […] Viability was measured 24 h later and compared with survival of control (untreated cells, Unt). […]

[51] = tested on: cortical neurons; assay: Neuroprotection in cortical neurons treated with homocysteic acid (HCA); assay type: cell-based; settings: cortical neurons treated with HCA (oxidative stress); 5 uM and 25 uM for 18 h; single experiment in duplicate
Description: as §1, §2

[52] = target: CDKs; assay: Kinome profiling of NGN-006; assay type: binding; settings: kinases that HSB-13 inhibits
[53] = target: T1, GSK3β; assay: Kinome profiling of NGN-006; assay type: binding; settings: kinase that HSB-13 inhibits
[54] = target: p38 MAPK; assay: Kinome profiling of NGN-006; assay type: binding; settings: kinase that HSB-13 inhibits
[55] = target: other members of the DAPK family; assay: Kinome profiling of NGN-006; assay type: binding

T32 sequence (O94768 whole entry): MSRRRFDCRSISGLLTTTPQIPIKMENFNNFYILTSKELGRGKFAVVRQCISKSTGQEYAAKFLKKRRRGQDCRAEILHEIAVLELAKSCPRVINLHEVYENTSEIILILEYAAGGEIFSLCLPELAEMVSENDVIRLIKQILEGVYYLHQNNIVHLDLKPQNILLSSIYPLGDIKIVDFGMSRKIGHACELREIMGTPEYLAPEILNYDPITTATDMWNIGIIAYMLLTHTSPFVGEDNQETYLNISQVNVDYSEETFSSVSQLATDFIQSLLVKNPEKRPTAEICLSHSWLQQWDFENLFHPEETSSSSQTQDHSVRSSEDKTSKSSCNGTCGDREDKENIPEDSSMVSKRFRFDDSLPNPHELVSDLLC
T1 sequence (P49841 whole entry): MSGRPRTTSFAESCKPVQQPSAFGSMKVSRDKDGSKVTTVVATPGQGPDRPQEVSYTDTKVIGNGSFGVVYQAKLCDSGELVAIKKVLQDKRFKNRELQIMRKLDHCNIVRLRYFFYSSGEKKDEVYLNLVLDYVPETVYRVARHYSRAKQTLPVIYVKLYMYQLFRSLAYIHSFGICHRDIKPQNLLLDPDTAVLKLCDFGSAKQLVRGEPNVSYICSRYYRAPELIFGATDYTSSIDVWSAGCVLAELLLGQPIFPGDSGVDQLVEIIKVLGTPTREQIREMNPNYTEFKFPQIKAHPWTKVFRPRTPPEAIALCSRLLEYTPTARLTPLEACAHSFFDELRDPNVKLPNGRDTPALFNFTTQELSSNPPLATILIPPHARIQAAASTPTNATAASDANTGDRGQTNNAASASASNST
T4 sequence (P49760 whole entry): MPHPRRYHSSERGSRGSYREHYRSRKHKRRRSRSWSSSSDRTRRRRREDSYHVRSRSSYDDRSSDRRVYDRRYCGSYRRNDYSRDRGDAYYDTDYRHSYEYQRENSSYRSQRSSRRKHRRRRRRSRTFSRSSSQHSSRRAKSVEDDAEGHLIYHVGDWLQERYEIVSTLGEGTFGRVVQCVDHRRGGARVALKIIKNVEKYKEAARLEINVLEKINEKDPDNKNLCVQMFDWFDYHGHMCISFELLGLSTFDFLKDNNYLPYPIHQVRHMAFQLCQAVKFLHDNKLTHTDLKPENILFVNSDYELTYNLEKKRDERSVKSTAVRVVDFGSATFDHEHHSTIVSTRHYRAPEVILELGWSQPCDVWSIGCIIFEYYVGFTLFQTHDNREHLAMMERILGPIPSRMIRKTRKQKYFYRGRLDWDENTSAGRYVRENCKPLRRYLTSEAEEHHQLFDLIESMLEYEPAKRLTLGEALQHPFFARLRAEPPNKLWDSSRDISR
T25 sequence (Q9C098 whole entry): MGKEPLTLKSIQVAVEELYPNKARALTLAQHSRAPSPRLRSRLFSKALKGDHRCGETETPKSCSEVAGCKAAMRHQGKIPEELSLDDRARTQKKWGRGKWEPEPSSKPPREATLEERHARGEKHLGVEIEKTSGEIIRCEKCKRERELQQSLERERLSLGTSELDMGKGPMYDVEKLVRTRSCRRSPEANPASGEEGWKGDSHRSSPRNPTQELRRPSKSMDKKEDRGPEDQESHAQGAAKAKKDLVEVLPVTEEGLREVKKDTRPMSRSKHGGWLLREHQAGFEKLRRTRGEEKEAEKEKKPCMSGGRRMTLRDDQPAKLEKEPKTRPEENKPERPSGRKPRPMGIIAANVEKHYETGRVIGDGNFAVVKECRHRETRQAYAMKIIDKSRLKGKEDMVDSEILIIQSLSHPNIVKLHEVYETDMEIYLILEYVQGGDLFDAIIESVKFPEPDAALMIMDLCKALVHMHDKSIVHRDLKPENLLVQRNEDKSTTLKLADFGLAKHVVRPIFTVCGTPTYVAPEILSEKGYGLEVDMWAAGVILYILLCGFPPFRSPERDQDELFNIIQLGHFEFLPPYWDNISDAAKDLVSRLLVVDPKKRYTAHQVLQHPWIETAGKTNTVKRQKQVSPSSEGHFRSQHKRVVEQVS
T5 sequence (P49761 whole entry): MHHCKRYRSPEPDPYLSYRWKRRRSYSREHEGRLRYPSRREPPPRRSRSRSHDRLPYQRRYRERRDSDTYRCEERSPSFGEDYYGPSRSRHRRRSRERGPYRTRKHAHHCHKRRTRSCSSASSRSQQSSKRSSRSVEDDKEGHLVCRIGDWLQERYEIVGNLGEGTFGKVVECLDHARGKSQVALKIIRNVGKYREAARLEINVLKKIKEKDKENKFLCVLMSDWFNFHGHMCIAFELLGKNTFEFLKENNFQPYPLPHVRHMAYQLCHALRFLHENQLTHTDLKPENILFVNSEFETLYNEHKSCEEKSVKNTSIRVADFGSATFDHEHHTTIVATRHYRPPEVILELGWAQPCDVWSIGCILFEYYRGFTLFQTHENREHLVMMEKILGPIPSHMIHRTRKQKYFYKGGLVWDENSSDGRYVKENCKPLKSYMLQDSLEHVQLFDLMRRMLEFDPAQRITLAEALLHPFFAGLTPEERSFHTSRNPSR
T35 sequence (Q92630 whole entry): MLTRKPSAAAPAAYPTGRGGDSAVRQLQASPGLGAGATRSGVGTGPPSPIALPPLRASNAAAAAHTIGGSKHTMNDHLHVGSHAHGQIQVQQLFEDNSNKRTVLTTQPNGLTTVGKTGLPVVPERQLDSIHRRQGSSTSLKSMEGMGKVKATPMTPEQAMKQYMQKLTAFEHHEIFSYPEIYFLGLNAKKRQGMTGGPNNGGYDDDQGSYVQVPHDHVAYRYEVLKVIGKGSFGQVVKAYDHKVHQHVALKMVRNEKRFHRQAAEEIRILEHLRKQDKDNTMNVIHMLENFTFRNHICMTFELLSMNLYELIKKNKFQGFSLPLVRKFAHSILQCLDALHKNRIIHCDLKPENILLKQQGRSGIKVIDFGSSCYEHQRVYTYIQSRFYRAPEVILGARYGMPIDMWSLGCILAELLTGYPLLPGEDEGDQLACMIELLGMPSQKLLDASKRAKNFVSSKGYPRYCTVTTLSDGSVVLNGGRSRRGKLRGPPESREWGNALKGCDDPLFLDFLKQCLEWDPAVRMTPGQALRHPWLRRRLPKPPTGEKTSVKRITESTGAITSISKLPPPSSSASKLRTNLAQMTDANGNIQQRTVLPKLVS
T11 sequence (Q8N752 whole entry): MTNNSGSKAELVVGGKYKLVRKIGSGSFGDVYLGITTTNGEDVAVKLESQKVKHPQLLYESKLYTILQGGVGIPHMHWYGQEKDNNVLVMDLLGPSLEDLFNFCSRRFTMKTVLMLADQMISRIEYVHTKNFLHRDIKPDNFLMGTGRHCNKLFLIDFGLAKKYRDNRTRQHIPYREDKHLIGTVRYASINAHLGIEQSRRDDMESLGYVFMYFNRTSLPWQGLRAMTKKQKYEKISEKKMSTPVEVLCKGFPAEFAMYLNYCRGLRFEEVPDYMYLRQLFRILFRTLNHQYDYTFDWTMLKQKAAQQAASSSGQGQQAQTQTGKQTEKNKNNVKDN
T39 sequence (P00533 25-1210 G719S): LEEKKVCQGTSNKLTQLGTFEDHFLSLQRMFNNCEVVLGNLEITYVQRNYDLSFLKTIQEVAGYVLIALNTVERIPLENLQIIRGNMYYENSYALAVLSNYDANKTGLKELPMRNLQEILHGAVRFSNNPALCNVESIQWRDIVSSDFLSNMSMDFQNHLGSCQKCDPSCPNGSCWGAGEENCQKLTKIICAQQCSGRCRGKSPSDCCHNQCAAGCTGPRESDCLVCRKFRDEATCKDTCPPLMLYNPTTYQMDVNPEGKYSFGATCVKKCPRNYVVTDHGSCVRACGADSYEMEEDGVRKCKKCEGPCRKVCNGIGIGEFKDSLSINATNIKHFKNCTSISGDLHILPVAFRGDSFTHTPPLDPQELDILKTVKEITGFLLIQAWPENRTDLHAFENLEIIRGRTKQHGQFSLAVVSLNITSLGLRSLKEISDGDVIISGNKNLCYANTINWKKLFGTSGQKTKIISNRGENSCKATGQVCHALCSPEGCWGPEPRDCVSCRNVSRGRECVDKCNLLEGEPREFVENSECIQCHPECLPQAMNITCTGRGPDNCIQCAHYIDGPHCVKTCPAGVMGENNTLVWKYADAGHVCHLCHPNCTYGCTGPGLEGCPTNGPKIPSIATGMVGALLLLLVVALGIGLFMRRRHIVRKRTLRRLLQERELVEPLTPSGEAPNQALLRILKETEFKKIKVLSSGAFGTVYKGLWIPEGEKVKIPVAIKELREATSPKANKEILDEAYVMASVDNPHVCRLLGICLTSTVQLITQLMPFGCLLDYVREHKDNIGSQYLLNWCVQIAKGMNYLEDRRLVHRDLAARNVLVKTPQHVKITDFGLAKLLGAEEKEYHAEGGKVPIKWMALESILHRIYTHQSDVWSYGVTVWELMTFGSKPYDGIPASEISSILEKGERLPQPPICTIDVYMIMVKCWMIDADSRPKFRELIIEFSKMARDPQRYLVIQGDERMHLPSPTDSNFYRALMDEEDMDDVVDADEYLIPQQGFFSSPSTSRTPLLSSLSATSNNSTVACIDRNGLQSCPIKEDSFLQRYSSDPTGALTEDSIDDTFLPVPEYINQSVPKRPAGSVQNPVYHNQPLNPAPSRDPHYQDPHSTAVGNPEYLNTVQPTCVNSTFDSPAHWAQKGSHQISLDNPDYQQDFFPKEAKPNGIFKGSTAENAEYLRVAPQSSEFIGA
T12 sequence (P48730 whole entry): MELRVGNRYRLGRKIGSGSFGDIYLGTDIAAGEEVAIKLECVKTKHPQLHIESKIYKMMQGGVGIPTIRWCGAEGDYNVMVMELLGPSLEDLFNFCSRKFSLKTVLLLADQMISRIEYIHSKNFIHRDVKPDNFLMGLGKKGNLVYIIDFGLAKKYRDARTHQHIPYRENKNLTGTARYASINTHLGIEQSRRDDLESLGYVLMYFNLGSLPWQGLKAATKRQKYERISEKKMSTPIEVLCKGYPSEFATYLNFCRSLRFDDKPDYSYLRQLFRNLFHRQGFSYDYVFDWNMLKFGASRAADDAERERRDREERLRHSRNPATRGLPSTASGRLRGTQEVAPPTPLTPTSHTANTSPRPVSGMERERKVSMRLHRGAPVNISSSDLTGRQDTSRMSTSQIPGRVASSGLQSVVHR

SMILES: O=C1Nc2ccc(I)cc2/C1=C/c1cc(Br)c(O)c(Br)c1 [GW5074, reference compound]
kinases inhibited substantially of the 451 kinases tested [1]: 21

SMILES: Nc1ccc2c(c1)NC(=O)/C(=C/c1cc(Br)c(O)c(Br)c1)O2 [HSB-13]
kinases inhibited out of a panel of 20 kinases [2]: 3 | kinase inhibition (in words) [3]: most inhibited | kinase inhibition (in words) [4]: most inhibited | kinase inhibition (in words) [5]: most inhibited | behavioral performance [6]: improved behavioral performance | neurodegeneration [6]: prevented neurodegeneration | protection [7]: protective | protection against neuronal loss [8]: protective

remaining binding at 1 µM [9]: 100% | remaining binding at 1 µM [10]: 79% | remaining binding at 1 µM [11]: 100% | remaining binding at 1 µM [12]: 92% | remaining binding at 1 µM [13]: 100% | remaining binding at 1 µM [14]: 100% | remaining binding at 1 µM [15]: 100% | remaining binding at 1 µM [16]: 97% | remaining binding at 1 µM [17]: 100% | remaining binding at 1 µM [18]: 100% | remaining binding at 1 µM [19]: 100% | remaining binding at 1 µM [20]: 89% | remaining binding at 1 µM [21]: 100% | remaining binding at 1 µM [22]: 100% | remaining binding at 1 µM [23]: 84% | remaining binding at 1 µM [24]: 100% | remaining binding at 1 µM [25]: 100% | remaining binding at 1 µM [26]: 100% | remaining binding at 1 µM [27]: 100% | remaining binding at 1 µM [28]: 86% | remaining binding at 1 µM [29]: 88% | remaining binding at 1 µM [30]: 100% | remaining binding at 1 µM [31]: 98% | remaining binding at 1 µM [32]: 100% | remaining binding at 1 µM [33]: 100% | remaining binding at 1 µM [34]: 100% | remaining binding at 1 µM [35]: 100% | remaining binding at 1 µM [36]: 100% | remaining binding at 1 µM [37]: 96% | remaining binding at 1 µM [38]: 26% | remaining binding at 1 µM ([39]; KINOMEscan DRAK2 (Entrez STK17B), 1 uM, read-out: % control): 83% | kinase inhibition (in words) ([39]; closely-related DRAK2 protein): not inhibited | remaining binding at 1 µM [40]: 100% | remaining binding at 1 µM [41]: 100% | remaining binding at 1 µM [42]: 100% | remaining binding at 1 µM [43]: 87% | remaining binding at 1 µM [44]: 100% | remaining binding at 1 µM [45]: 100% | remaining binding at 1 µM [46]: 98% | remaining binding at 1 µM [47]: 92% | remaining binding at 1 µM [48]: 100% | kinase inhibition (in words) [52]: does not inhibit | kinase inhibition (in words) [53]: does not inhibit | kinase inhibition (in words) [54]: does not inhibit | kinase inhibition (in words) [55]: not inhibited
SMILES: Nc1ccc2c(c1)NC(=O)/C(=C/c1ccc(Cl)cc1)O2 [NGN-006, (2Z)-6-amino-2-[(4-chlorophenyl)methylidene]-3,4-dihydro-2H-1,4-benzoxazin-3-one]
% control [49]: 100% | kinases inhibited substantially of the 451 kinases tested [1]: only DRAK1/STK17a | neuroprotection (viability) [50]: protective | neuroprotection (viability) [51]: protective
